Article PMC8537068, “Do Lipids Influence Gastrointestinal Processing: A Case Study of Major Soybean Allergen Gly m 4” (Membranes, 2021)

Assays:
Gly m 4 = molecular target: T1, Gly m 4 (Glycine max, UniProt P26987); assay: TNS displacement fluorescence; assay type: binding; conditions: 4 µM protein, 4 µM TNS, 4 µM lipid; 0.01 M phosphate pH 7.4, 25 °C
T1 construct: gene PR-10
T1 sequence (P26987 1-158): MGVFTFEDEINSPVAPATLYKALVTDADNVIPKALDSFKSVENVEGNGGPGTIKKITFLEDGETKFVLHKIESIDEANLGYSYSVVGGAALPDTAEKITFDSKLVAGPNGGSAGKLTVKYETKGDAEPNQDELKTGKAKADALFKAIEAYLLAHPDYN

pepsin = molecular target: T2, pepsin (Sus scrofa, UniProt P00791); assay: TNS displacement fluorescence; assay type: binding; conditions: 4 µM protein, 4 µM TNS, 4 µM lipid; 0.05 M HCl pH 2.0, 25 °C
T2 construct: gene PGA; commercial native porcine pepsin (Sigma-Aldrich), mature enzyme without propeptide
T2 sequence (P00791 60-385): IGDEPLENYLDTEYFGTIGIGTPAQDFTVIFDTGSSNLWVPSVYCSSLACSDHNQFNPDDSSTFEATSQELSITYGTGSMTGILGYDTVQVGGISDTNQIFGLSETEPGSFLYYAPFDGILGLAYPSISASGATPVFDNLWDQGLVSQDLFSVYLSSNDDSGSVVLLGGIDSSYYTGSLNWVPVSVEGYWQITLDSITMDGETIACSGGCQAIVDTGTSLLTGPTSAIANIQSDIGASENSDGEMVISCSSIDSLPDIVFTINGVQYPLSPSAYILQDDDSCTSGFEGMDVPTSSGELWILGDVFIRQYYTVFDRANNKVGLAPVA

| % of control TNS fluorescence (Gly m 4) [%] | SMILES | % of control TNS fluorescence (pepsin) |
| --- | --- | --- |
| 26 | CCCCCCCCCCCCCCCC(=O)OC[C@@H](O)COP(=O)(O)OCC(O)CO (some centres unmarked) [LPPG, 1-palmitoyl-2-hydroxy-sn-glycero-3-phosphoglycerol] | pepsin bound to the tested FAs and LPPG with an equal efficiency |
| 12 | CCCCCCCC/C=C\CCCCCCCC(=O)O [OLE, oleic acid] | pepsin bound to the tested FAs and LPPG with an equal efficiency |
|  | CCCCCCCCCCCCCCCCCC(=O)O [STE, stearic acid] | pepsin bound to the tested FAs and LPPG with an equal efficiency |
